Measured values published in the supplement of paper PMC10307832.

Columns and labels:
Experiment in all cases: relative viability (nuclei count vs DMSO), 5 days (fraction); higher = more cells survive
IU1-47 = compound: CC1=CC(=C(N1C2=CC=C(C=C2)Cl)C)C(=O)CN3CCCCC3 [IU1-47]
Procedure, shortened: (§1)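 Lung cancer cell lines received five library-drug doses (not always all listed) spaced by √10, pinned on vehicle-anchored 1536-well plates after an overnight stay at 37 °C. Five days later, with no medium change, nuclei were Hoechst-stained, imaged at 4× and counted with MetaXpress. Viability is treated-well nuclei relative to vehicle-well nuclei, as a median across plates. Passing plates had control CV below 25% and at least one doubling.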

FG-4592 = compound: Cc1nc(C(=O)NCC(=O)O)c(O)c2ccc(Oc3ccccc3)cc12 [FG-4592]
Procedure, shortened: as §1

IU1-47 + Navitoclax = compound: CC1=CC(=C(N1C2=CC=C(C=C2)Cl)C)C(=O)CN3CCCCC3 [IU1-47] + CC1(C)CCC(c2ccc(Cl)cc2)=C(CN2CCN(c3ccc(C(=O)NS(=O)(=O)c4ccc(N[C@H](CCN5CCOCC5)CSc5ccccc5)c(S(=O)(=O)C(F)(F)F)c4)cc3)CC2)C1 [Navitoclax] (partner 0.5 µM)
Procedure, shortened: (§2)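 Lung cancer cell lines in 1536-well plates were dosed by pin tool the day after seeding, either with one drug alone or with a fixed anchor-drug dose plus five library-drug doses (not always all listed) in √10 steps. After 5 days, cells were fixed and their nuclei stained in one step (final 0.05% Triton X-100, 1% formaldehyde, 1 ug/ml Hoechst), then counted on 4× images. Relative viability is the nuclei count in treated wells divided by that in vehicle wells. Values are medians of duplicate plates.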

IU1-47 + Foretinib = compound: CC1=CC(=C(N1C2=CC=C(C=C2)Cl)C)C(=O)CN3CCCCC3 [IU1-47] + COc1cc2c(Oc3ccc(NC(=O)C4(C(=O)Nc5ccc(F)cc5)CC4)cc3F)ccnc2cc1OCCCN1CCOCC1 [Foretinib] (partner 0.25 µM)
Procedure, shortened: as §2

Row | Cell Line | relative viability (IU1-47; 0.08 µM) | relative viability (IU1-47; 0.253 µM) | relative viability (IU1-47; 0.8 µM) | relative viability (IU1-47; 2.53 µM) | relative viability (IU1-47; 8 µM) | relative viability (FG-4592; 0.08 µM) | relative viability (FG-4592; 0.253 µM) | relative viability (FG-4592; 0.8 µM) | relative viability (FG-4592; 2.53 µM) | relative viability (FG-4592; 8 µM) | relative viability (IU1-47 + Navitoclax; first compound 0.08 µM) | relative viability (IU1-47 + Navitoclax; first compound 0.253 µM) | relative viability (IU1-47 + Navitoclax; first compound 0.8 µM) | relative viability (IU1-47 + Navitoclax; first compound 8 µM) | relative viability (IU1-47 + Foretinib; first compound 0.08 µM) | relative viability (IU1-47 + Foretinib; first compound 0.253 µM) | relative viability (IU1-47 + Foretinib; first compound 0.8 µM) | relative viability (IU1-47 + Foretinib; first compound 2.53 µM) | relative viability (IU1-47 + Foretinib; first compound 8 µM) | relative viability (IU1-47 + Navitoclax; first compound 2.53 µM)
1 | PC-3 [JPC-3] | 1.09 | 1.06 | 1.11 | 0.705 | 0.982 | 1.06 | 0.948 | 0.987 | 1.07 | 1.02 | 0.834 | 0.817 | 0.804 | 0.788 | 1.13 | 1.11 | 1.12 | 1.08 | 1.05 | 
2 | BEN | 1.02 | 1.01 | 1.12 | 0.781 | 0.971 | 0.787 | 0.734 | 0.822 | 1.03 | 0.733 | 0.073 | 0.0735 | 0.0687 | 0.0719 | 0.618 | 0.676 | 0.646 |  | 0.61 | 0.0707
3 | NCI-H1666 | 0.953 | 1.02 | 0.968 | 0.957 | 1.01 | 0.979 | 0.939 | 0.953 | 0.913 | 0.901 | 1.1 | 1.04 | 0.89 | 0.824 | 1.04 | 0.928 | 0.893 | 0.948 | 0.896 | 0.912
4 | LC-2-ad | 0.981 | 0.997 | 1.07 | 0.673 | 0.889 | 0.997 | 0.924 | 0.973 | 0.925 | 1.09 | 0.429 | 0.548 | 0.524 | 0.382 | 1 | 1.07 | 0.908 | 0.794 | 0.878 | 0.443
5 | SK-LU-1 | 1.14 | 1.17 | 1.05 | 0.98 | 1.06 | 0.882 | 0.748 | 0.898 | 0.899 | 0.879 | 0.853 | 0.855 | 0.819 | 0.847 | 0.855 | 0.752 | 0.879 | 0.852 | 0.868 | 0.839
6 | ChaGo-K-1 | 0.982 | 0.997 | 1.04 | 0.811 | 0.821 | 0.97 | 0.975 | 0.935 | 0.967 | 0.937 | 1.15 | 1.15 | 0.895 | 0.625 | 0.967 | 0.934 | 0.954 | 0.979 | 0.81 | 0.889
7 | COR-L 105 | 0.95 | 0.901 | 1.02 | 0.899 | 0.91 | 0.921 | 0.938 | 0.909 | 0.821 | 0.801 | 0.896 | 0.809 | 0.865 | 0.68 | 0.907 | 1.14 | 1.22 | 1.2 | 1.4 | 0.81
8 | NCI-H1975 | 0.963 | 0.943 | 1.06 | 0.968 | 0.842 | 1 | 0.881 | 0.9 | 0.839 | 0.861 | 1.25 | 1.14 | 1.38 | 0.888 | 0.967 | 0.949 | 0.971 | 1.1 | 0.858 | 1.18
9 | Calu-6 | 1 | 1.06 | 1.07 | 1.04 | 1.02 | 0.945 | 0.995 | 1.03 | 0.975 | 1.02 | 1.07 | 1.01 | 0.827 | 0.802 | 1 | 1.01 | 0.934 | 0.917 | 0.874 | 0.867
10 | NCI-H1993 | 0.927 | 1.07 | 0.856 | 0.974 | 0.914 | 0.987 | 0.925 | 0.64 | 0.827 | 0.78 | 0.876 | 0.938 | 0.893 | 0.895 | 0.84 | 0.76 | 0.735 | 0.843 | 0.748 | 0.979
11 | RERF-LC-KJ | 1.06 | 1.04 | 1.14 | 0.902 | 0.946 | 1.03 | 0.922 | 1 | 1.02 | 0.906 | 0.939 | 0.812 | 0.839 | 0.879 | 0.877 | 0.918 | 0.922 | 0.868 | 0.893 | 1.14
12 | NCI-H23 | 0.93 | 0.986 | 1.15 | 0.908 | 0.857 | 0.965 | 0.833 | 0.71 | 0.782 | 0.829 | 0.791 | 0.903 | 0.987 | 0.716 | 0.91 | 1.14 | 1.04 | 1.17 | 1.03 | 0.925
13 | HCC-366 | 1.03 | 0.969 | 1.04 | 1.04 | 0.879 | 0.798 | 1 | 1.02 | 0.964 | 1.05 | 1.07 | 1.09 | 0.935 | 1.46 | 0.872 | 0.92 | 1 | 0.966 | 1.01 | 
14 | EMC-BAC-2 | 1.1 | 1.09 | 0.974 | 0.977 | 0.974 | 0.947 | 0.929 | 0.674 | 0.938 | 0.779 | 1.25 | 1.26 | 1.21 | 1.04 | 1.07 | 1.11 | 0.984 | 1.02 | 1.05 | 1.16
15 | NCI-H2405 | 1.07 | 1.06 | 1.03 | 0.863 | 1.01 | 0.869 | 0.826 | 0.912 | 0.928 | 0.944 | 1.02 | 0.902 | 0.862 | 0.897 | 1.13 | 1.11 | 1 | 1.05 | 1.07 | 
16 | NCI-H1944 | 1.1 | 1.02 | 0.947 | 0.902 | 0.852 | 0.932 | 0.872 | 0.685 | 0.954 | 0.852 | 1.1 | 1.12 | 1.04 | 1.03 | 1.03 | 0.954 | 0.905 | 0.824 | 0.759 | 
